Experimental data from paper PMC6302136, “Quantitative Chemotherapeutic Profiling of Gynecologic Cancer Cell Lines Using Approved Drugs and Bioactive Compounds^” (Translational Oncology, 2018).
Read-outs that look alike come from different tables or passages of the source. Each block holds one compound with its values, some of them ahead of it.

Experiments:
[1] = test system: ovarian cancer cell lines; assay: qHTS ATPlite cell viability, ovarian cancer cell lines; assay type: cell-based, human; details: Ovarian cell line killer; for IC50: mean of cell lines fulfilling criteria, 48 h, read-out: Average IC50; for Average SI: vs HEK 293T, >100 = inactive in HEK293T
[2] = test system: placental cancer cell lines (JAR, JEG-3); assay: qHTS ATPlite cell viability, placental cancer cell lines; assay type: cell-based, human; details: Placental cancer cell line killer; for IC50: mean of cell lines fulfilling criteria, 48 h, read-out: Average IC50; for Average SI: vs HEK 293T, >100 = inactive in HEK293T
Experimental: (§1) The ATPlite luminescence assay system assay kit was used to determine cell viability. The reagent was reconstituted and prepared as described by the manufacturer. To measure the cell death caused by the compounds, cells were cultured in 4 μl of media for 16 hours at 37°C with 5% CO2 in assay plates, followed by the addition of DMSO or 16 SOC chemotherapeutic compounds dissolved in DMSO. SOC compounds were dosed at 11 concentrations (1:3 dilution) in quadruplicate from 57.5 μM to 0.977 nM using the automated Wako 1536 Pin Tool workstation and incubated at 37°C with 5% CO2 for 24, 48, or 72 hours. Four microliters of ATPlite, the ATP monitoring reagent, was then added to each well of the assay plates using the Multidrop Combi reagent dispenser followed by incubation for 15 minutes at room temperature. The resulting luminescence was measured using the ViewLux plate reader. Data were normalized for each drug using the largest luminescence value as 100% full cell viability (0% cell killing) and to the smallest luminescence value 0% viability (100% cell killing).
The ATPlite assay to determine the IC50 values for each compound was conducted as described above. Plates were processed on the fully integrated Kalypsys robotic system.

[3] = test system: 11 gynecologic cancer cell lines; assay: qHTS ATPlite cell viability, gynecologic cancer cell lines (ovarian, cervical, placental); assay type: cell-based, human; details: for Cell Lines Active: number of the 11 cancer cell lines in which the compound is active (<1 μM potency, >70% efficacy); for Average SI: selectivity index vs HEK 293T
Experimental: as §1
(§2) A qHTS [79], in which each compound was assayed in five concentrations (0.092, 0.46, 2.3, 11.5, and 57.5 μM), was performed for the primary compound screen using the NPC [80] and NPACT drug libraries at NCATS. The OBGYN cancer and HEK 293T control cells were seeded into 1536-well assay plates at 1000 cells per 4 μl/well and incubated at 37°C in 5% CO2 for 48 hours. The ATPlite assay to determine the IC50 values for each compound was conducted as described above. Plates were processed on the fully integrated Kalypsys robotic system.

[4] = test system: PA-1 cells; assay: ATP content (ATPlite) cell viability assay in PA-1 cells; assay type: cell-based, human; details: for IC50: Homo sapiens, PA-1
[5] = test system: CAOV-3 cells; assay: ATP content (ATPlite) cell viability assay in CAOV-3 cells; assay type: cell-based, human; details: Homo sapiens, Caov-3, assay optimization
Experimental: as §1

[6] = test system: HEK 293T cells; assay: cells; details: for Efficacy (%) (HEK 293T toxicity) / IC50: 48 h; for IC50: read-out: IC50 (HEK 293T toxicity)
Experimental: as §1, §2

[7] = test system: HEK 293T cells; parameters: method as in PMID 31498718; details: CellTiterGlo, cited from earlier work
[8] = test system: HeLa cells; assay: qHTS ATPlite cell viability, HeLa cells; assay type: cell-based, human
[9] = Homo sapiens, average IC90 over the cell lines in which the compound is active, read-out: IC90
[10] = toxic compounds, average over all cancer cell lines, mean ± S.D.
[11] = HEK 293T, this screen (ATPlite)

Compound: COc1cc(Nc2ncc(F)c(Nc3ccc4c(n3)N(COP(=O)(O)O)C(=O)C(C)(C)O4)n2)cc(OC)c1OC [Fostamitinib]
- IC50 ([1]; Homo sapiens): 6240 ± 4060 nM
- Average SI [1]: >100
- Average SI ([1]; listed as fostamatinib): > 100

Compound: i-Bet-151
- IC50 [2]: 19300 ± 9130 nM
- Average SI [2]: >100

- IC90 [3, 9]: 283 nM
- IC50 ([3]; Homo sapiens, average over the cell lines in which the compound was active, read-out: average IC50): 0.173 µM
Compound: CN(NC(=O)CC(=O)NN(C)C(=S)c1ccccc1)C(=S)c1ccccc1 [Elesclomol]
- Cell Lines Active [3]: six
- Cell Lines Active ([3]; listed as Elesclomol (STA-4783)): 6

Compound: COc1cccc2c1C(=O)c1c(O)c3c(c(O)c1C2=O)C[C@@](O)(C(=O)CO)C[C@@H]3O[C@H]1C[C@H](N)[C@H](O)[C@H](C)O1 [Adriamycin]
- IC50 ([4]; 24 hours incubation, assay optimization, read-out: IC50 (PA-1)): 109 nM
- IC50 ([4]; 48 hours incubation, assay optimization, read-out: IC50 (PA-1)): 11.8 nM
- IC50 ([4]; 72 hours incubation, assay optimization, read-out: IC50 (PA-1)): 3.59 nM
- IC50 ([4]; confirmation screen, 48 h, read-out: Avg IC50): 576 nM
- Avg SI ([4]; PA-1 selective compounds, vs HEK 293T, >100 = inactive in HEK293T): 7.02
- IC50 ([5]; 24 hours incubation): 15900 nM
- IC50 ([5]; 48 hours incubation): 98.2 nM
- IC50 ([5]; 72 hours incubation): 73.7 nM

Compound: Cc1ccc(C(=O)Nc2ccc(CN3CCN(C)CC3)c(C(F)(F)F)c2)cc1C#Cc1cnc2cccnn12 [Ponantinib]
- IC50 ([3]; Homo sapiens, 48 h, read-out: Average IC50 (μM)): 15.9 ± 9.07 µM
- Average SI [3, 10]: 3.56 ± 4.85
- Efficacy (%) (HEK 293T toxicity) [6, 11]: 92%
- IC50 ([6]; Homo sapiens, HEK-293T): 19900 nM
- Efficacy (%) (independent screen, HEK 293T) [7]: 92.6%
- Independent Screen (confirmation of HEK 293T toxicity) [7]: Confirmed toxic
- IC50 ([7]; independent screen): 811 nM

Compound: COc1ccc2cc3[n+](cc2c1OC)CCc1cc2c(cc1-3)OCO2 [Berberine]
- IC50 ([2]; Homo sapiens, JEG-3): 4410 ± 662 nM

Compound: Cc1csc(NC(=O)CSc2nc3c(c(C(F)(F)F)c2C#N)CCC3)n1 [Irestatin 9389]
- IC50 ([3]; toxic compounds, average over all cancer cell lines, 48 h, mean ± S.D., read-out: Average IC50): 3.52 ± 3.12 µM
- Average SI [3, 10]: 0.51 ± 0.20
- Efficacy (%) (HEK 293T toxicity) [6, 11]: 102%
- IC50 [6, 11]: 1340 nM

Compound: C=CC(=O)Nc1cccc(Oc2nc(Nc3ccc(N4CCN(C)CC4)cc3)ncc2Cl)c1 [WZ3146]
- IC50 [1]: 12300 ± 8520 nM
- Average SI [1]: >100

Compound: CN(C)C1CCN(C(=O)c2ccc(NC(=O)Nc3ccc(-c4nc(N5CCOCC5)nc(N5CCOCC5)n4)cc3)cc2)CC1 [Gedatolisib]
- IC90 ([3]; Homo sapiens): 6800 nM
- Cell Lines Active [3]: 4

Compound: CNC(=O)c1ccccc1Nc1nc(Nc2ccc(N3CCOCC3)cc2OC)ncc1Cl [TAE226]
- IC50 [1]: 5320 ± 1420 nM
- Average SI [1]: 8.76 ± 2.40

- IC90 [3, 9]: 391 nM
Compound: CC(C)C[C@H](NC(=O)[C@@H](NC(=O)c1cccc(-c2ccccc2)n1)[C@@H](C)O)B(O)O [CEP-18770 (Delanzomib)]
- Cell Lines Active [3]: 6

- IC90 [3, 9]: 90 nM
Compound: CC[C@@H]1C(=O)N(C)c2cnc(Nc3ccc(C(=O)N[C@H]4CC[C@H](N5CCN(CC6CC6)CC5)CC4)cc3OC)nc2N1C(C)C [Volasertib]
- Cell Lines Active [3]: 4
- IC50 ([2]; Homo sapiens, JEG-3): 70.9 ± 7.35 nM
- Average SI [2]: 131 ± 13.5

- IC50 ([8]; HeLa, confirmation screen, 48 h): 638 nM
Compound: COc1cc(N2CCC(N)CC2)ccc1Nc1ncc(Cl)c(-c2c[nH]c3ccccc23)n1 [AZD3463]
- Avg SI ([8]; HeLa selective compounds, vs HEK 293T): 30.3

Compound: CNc1nccc(-c2cccnc2Oc2cc(C(=O)Nc3cccc(C(F)(F)F)c3)ccc2C)n1 [AMG-Tie2-1]
- IC50 [1]: 15900 ± 9710 nM
- Average SI [1]: >100

Compound: O=C(CCCCCCC(=O)Nc1ccccc1)NO [Vorinostat]
- Efficacy (%) (HEK 293T toxicity) [6, 11]: 64.7%
- toxicity to HEK 293T cells ([6]; compared with suppression of the 11 gynecologic cancer cell lines): equally toxic to HEK 293T cells
- Efficacy (%) (independent screen, HEK 293T) [7]: 80.2%
- Independent Screen (confirmation of HEK 293T toxicity) [7]: Confirmed toxic
